A short description of data set [1]: Blood clearance in Sprague-Dawley rat at 2.2 mg/kg, iv by LC-MS/MS analysis. It is filed as ADME, organism-based. Details: dose 2.2 mg/kg, route intravenous. To be noted: whole blood.
For data set [2], the target named is T1, Cytochrome P450 2D6 (Homo sapiens, UniProt P10635). In words: Inhibition of CYP2D6 in human liver microsomes using dextromethorphan as substrate after 5 to 60 mins by LC-MS/MS analysis. It is filed as ADME, Microsome.
The target in data set [3] is Cytochrome P450 2C19 (Homo sapiens, UniProt P33261). Put plainly: Inhibition of CYP2C19 in human liver microsomes using mephenytoin as substrate after 5 to 60 mins by LC-MS/MS analysis. Format: ADME, Microsome.
Data set [4] deals with T2, Cytochrome P450 2C8 (Homo sapiens, UniProt P10632).
T2 sequence (P10632 whole entry): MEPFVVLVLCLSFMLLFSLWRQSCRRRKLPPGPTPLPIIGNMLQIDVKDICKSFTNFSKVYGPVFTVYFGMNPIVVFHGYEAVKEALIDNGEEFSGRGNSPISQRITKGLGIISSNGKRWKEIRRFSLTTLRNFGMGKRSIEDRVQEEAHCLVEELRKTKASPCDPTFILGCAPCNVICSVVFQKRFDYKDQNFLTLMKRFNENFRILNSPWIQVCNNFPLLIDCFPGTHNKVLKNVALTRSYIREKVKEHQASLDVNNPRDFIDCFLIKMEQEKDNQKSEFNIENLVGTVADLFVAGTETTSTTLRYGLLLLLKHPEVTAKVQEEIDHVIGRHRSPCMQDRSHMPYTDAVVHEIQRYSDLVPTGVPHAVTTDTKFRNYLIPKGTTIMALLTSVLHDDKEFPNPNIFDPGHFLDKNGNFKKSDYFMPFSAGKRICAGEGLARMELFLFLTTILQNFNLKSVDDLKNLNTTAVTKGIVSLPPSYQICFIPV
In words: Inhibition of CYP2C8 in human liver microsomes using paclitaxel as substrate after 5 to 60 mins by LC-MS/MS analysis. It is filed as ADME, Microsome.

The target of data set [5] is Cytochrome P450 2C9 (Homo sapiens, UniProt P11712). Put plainly: Inhibition of CYP2C9 in human liver microsomes using diclofenac as substrate after 5 to 60 mins by LC-MS/MS analysis. Format: ADME, Microsome.
Data set [6] deals with T3, Cytochrome P450 1A2 (Homo sapiens, UniProt P05177).
T3 sequence (P05177 whole entry): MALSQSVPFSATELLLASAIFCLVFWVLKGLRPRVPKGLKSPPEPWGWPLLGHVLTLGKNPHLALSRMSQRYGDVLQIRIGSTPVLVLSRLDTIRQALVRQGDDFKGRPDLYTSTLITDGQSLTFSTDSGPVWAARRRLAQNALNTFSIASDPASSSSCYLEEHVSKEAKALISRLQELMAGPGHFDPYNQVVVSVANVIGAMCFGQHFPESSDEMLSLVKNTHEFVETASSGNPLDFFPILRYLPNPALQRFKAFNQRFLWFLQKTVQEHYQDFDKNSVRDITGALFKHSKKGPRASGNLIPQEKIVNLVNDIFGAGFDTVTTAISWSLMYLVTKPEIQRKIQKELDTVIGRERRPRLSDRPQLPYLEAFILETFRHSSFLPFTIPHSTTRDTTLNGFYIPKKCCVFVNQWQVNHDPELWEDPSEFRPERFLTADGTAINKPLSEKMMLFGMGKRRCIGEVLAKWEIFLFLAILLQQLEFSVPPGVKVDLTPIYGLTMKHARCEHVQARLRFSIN
Put plainly: Inhibition of CYP1A2 in human liver microsomes using phenacetin as substrate after 5 to 60 mins by LC-MS/MS analysis. It is filed as ADME, Microsome.

Data set [7] concerns the target T4, Eukaryotic translation initiation factor 2-alpha kinase 3 (Homo sapiens, UniProt Q9NZJ5).
T4 sequence (Q9NZJ5 whole entry): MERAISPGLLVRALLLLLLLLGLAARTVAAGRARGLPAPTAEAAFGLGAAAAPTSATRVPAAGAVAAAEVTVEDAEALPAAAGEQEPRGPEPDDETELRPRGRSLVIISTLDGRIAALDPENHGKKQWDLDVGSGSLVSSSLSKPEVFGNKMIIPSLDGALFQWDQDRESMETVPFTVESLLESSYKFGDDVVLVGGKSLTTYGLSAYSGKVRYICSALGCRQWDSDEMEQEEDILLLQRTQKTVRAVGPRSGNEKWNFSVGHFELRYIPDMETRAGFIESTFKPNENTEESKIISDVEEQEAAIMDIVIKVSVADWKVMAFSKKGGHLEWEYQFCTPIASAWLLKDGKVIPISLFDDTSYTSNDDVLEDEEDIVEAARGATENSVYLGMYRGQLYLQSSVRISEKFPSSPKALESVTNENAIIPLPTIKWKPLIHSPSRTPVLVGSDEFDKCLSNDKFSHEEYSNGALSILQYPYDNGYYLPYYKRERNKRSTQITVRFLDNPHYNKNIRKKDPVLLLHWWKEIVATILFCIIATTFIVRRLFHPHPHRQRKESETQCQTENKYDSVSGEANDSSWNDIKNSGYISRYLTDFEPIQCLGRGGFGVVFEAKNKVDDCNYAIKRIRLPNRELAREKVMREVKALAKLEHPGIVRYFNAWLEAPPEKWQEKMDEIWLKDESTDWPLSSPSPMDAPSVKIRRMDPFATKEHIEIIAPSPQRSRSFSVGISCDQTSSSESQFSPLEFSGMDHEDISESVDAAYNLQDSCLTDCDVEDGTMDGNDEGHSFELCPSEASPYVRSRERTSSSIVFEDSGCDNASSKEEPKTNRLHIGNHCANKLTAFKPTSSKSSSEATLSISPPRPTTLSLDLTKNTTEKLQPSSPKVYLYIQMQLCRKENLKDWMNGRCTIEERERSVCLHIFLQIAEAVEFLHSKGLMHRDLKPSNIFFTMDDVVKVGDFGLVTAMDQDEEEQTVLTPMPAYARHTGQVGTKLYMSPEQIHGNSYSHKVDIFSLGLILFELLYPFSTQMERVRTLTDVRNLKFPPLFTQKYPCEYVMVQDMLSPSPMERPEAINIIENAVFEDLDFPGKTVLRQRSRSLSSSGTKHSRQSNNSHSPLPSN
In words: Inhibition of GST-tagged PERK cytoplasmic domain (536 to 1116) (unknown origin) assessed as biotinylated His6-tagged EIF2alpha phosphorylation preincubated for 30 mins followed by ATP and eIF2alpha addition measured after 1 hr by HTRF assay.

Data set [8] has as its target T4, Eukaryotic translation initiation factor 2-alpha kinase 3. Put plainly: Inhibition of thapsigargin-induced autophosphorylation of PERK in human A549 cells preincubated for 1 hr followed by thapsigargin-induction measured after 1 hr by Western blotting analysis. Format: cell-based.
Data set [9] in a line: Blood clearance in beagle dog at 2.9 mg/kg, iv by LC-MS/MS analysis. On the set-up: dose 2.9 mg/kg, route intravenous. It is filed as ADME, organism-based, Canis lupus familiaris. To be noted: whole blood.
A short description of data set [10]: Half life in Sprague-Dawley rat at 2.2 mg/kg, iv by LC-MS/MS analysis. Format: ADME, organism-based. Details: dose 2.2 mg/kg, route intravenous. The conditions noted are these: in vivo.
The nature of data set [11]: Volume of distribution at steady state in beagle dog at 2.9 mg/kg, iv by LC-MS/MS analysis. On the set-up: dose 2.9 mg/kg, route intravenous. The conditions noted are these: in vivo, read-out: Vdss. It is filed as ADME, organism-based, Canis lupus familiaris.
Data set [12] deals with Interferon-induced, double-stranded RNA-activated protein kinase (Homo sapiens, UniProt P19525). In words: Inhibition of PKR (unknown origin) assessed as EIF2AK2 phosphorylation.
Data set [13] in a line: Volume of distribution at steady state in Sprague-Dawley rat at 2.2 mg/kg, iv by LC-MS/MS analysis. It is filed as ADME, organism-based. On the set-up: dose 2.2 mg/kg, route intravenous. The conditions noted are these: in vivo, read-out: Vdss.
A short description of data set [14]: Half life in CD1 mouse at 2 mg/kg, iv by LC-MS/MS analysis. It is filed as ADME, organism-based. Details: dose 2 mg/kg, route intravenous. The conditions noted are these: in vivo.
Data set [15] is described as follows: Volume of distribution at steady state in CD1 mouse at 2 mg/kg, iv by LC-MS/MS analysis. It is filed as ADME, organism-based. On the set-up: dose 2 mg/kg, route intravenous. To be noted: in vivo, read-out: Vdss.
Data set [16] is described as follows: AUC (0 to infinity) in Sprague-Dawley rat at 2.2 mg/kg, iv by LC-MS/MS analysis. Details: time infinity, dose 2.2 mg/kg, route intravenous. To be noted: plasma. It is filed as ADME, organism-based.
Data set [17] in a line: Oral bioavailability in CD1 mouse at 13.4 mg/kg by LC-MS/MS analysis. The conditions noted are these: in vivo. It is filed as ADME, organism-based.
The nature of data set [18]: AUC (0 to infinity) in CD1 mouse at 2 mg/kg, iv by LC-MS/MS analysis. Format: ADME, organism-based. Details: time infinity, dose 2 mg/kg, route intravenous. The conditions noted are these: plasma.
A short description of data set [19]: Blood clearance in CD1 mouse at 2 mg/kg, iv by LC-MS/MS analysis. It is filed as ADME, organism-based. On the set-up: dose 2 mg/kg, route intravenous. The conditions noted are these: whole blood.
Data set [20] is described as follows: Oral bioavailability in beagle dog at 5.2 mg/kg by LC-MS/MS analysis. Format: ADME, organism-based, Canis lupus familiaris. The conditions noted are these: in vivo.
Data set [21] in a line: AUC (0 to infinity) in CD1 mouse at 13.4 mg/kg, po by LC-MS/MS analysis. It is filed as ADME, organism-based. On the set-up: time infinity, dose 13.4 mg/kg, route oral. To be noted: plasma.
Data set [22] is described as follows: AUC (0 to infinity) in beagle dog at 5.2 mg/kg, po by LC-MS/MS analysis. Format: ADME, organism-based, Canis lupus familiaris. On the set-up: time infinity, dose 5.2 mg/kg, route oral. The conditions noted are these: plasma.
The target of data set [23] is Eukaryotic translation initiation factor 2-alpha kinase 1 (Homo sapiens, UniProt Q9BQI3). Put plainly: Inhibition of HRI (unknown origin) assessed as EIF2AK1 phosphorylation.
Data set [24] can be described thus: Oral bioavailability in Sprague-Dawley rat at 4.3 mg/kg by LC-MS/MS analysis. It is filed as ADME, organism-based. To be noted: in vivo.
The nature of data set [25]: AUC (0 to infinity) in Sprague-Dawley rat at 4.3 mg/kg, po by LC-MS/MS analysis. Format: ADME, organism-based. Details: time infinity, dose 4.3 mg/kg, route oral. To be noted: plasma.
The nature of data set [26]: AUC (0 to infinity) in beagle dog at 2.9 mg/kg, iv by LC-MS/MS analysis. Format: ADME, organism-based, Canis lupus familiaris. Details: time infinity, dose 2.9 mg/kg, route intravenous. To be noted: plasma.
The nature of data set [27]: Half life in beagle dog at 2.9 mg/kg, iv by LC-MS/MS analysis. Format: ADME, organism-based, Canis lupus familiaris. On the set-up: dose 2.9 mg/kg, route intravenous. To be noted: in vivo.
Data set [28] deals with eIF-2-alpha kinase GCN2 (Homo sapiens, UniProt Q9P2K8). Put plainly: Inhibition of GCN2 (unknown origin) assessed as EIF2AK4 phosphorylation.
Data set [29] addresses T1, Cytochrome P450 2D6. Put plainly: Inhibition of CYP2D6 in human liver microsomes using bufuralol as substrate after 5 to 60 mins by LC-MS/MS analysis. Format: ADME, Microsome.

Bounds are passed on as bounds.

Six compounds from ChEMBL document CHEMBL2440009, “Discovery of GSK2656157: An Optimized PERK Inhibitor Selected for Preclinical Development” (ACS Med Chem Lett, 2013) can be followed below.

Sequence of Cytochrome P450 2C9 (P11712 whole entry): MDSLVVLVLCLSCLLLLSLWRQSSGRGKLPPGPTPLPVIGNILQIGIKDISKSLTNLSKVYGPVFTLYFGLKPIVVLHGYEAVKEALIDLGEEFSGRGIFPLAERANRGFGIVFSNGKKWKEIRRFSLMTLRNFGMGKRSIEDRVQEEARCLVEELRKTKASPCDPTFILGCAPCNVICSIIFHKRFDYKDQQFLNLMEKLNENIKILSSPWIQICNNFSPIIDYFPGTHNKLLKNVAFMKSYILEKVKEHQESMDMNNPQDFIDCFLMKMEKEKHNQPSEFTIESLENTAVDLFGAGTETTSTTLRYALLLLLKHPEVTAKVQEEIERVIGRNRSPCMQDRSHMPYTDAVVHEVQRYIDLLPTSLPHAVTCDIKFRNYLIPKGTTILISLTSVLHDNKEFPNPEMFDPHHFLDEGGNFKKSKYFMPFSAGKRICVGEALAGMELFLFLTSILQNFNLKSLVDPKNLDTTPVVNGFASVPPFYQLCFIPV
T1 sequence (P10635 whole entry): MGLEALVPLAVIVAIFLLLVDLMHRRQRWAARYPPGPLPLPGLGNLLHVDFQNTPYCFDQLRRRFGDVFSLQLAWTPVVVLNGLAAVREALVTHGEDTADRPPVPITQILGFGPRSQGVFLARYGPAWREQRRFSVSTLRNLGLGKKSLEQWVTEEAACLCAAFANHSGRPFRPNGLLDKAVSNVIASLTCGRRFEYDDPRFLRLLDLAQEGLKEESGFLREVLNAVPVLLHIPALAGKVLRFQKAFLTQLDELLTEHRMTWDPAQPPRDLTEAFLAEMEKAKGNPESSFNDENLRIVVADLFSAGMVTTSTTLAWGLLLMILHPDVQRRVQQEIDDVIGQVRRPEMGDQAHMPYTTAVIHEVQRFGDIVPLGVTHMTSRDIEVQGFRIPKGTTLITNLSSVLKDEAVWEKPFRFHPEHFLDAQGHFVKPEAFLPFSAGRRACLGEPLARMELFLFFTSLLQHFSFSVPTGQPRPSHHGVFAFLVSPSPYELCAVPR
Sequence of Cytochrome P450 2C19 (P33261 whole entry): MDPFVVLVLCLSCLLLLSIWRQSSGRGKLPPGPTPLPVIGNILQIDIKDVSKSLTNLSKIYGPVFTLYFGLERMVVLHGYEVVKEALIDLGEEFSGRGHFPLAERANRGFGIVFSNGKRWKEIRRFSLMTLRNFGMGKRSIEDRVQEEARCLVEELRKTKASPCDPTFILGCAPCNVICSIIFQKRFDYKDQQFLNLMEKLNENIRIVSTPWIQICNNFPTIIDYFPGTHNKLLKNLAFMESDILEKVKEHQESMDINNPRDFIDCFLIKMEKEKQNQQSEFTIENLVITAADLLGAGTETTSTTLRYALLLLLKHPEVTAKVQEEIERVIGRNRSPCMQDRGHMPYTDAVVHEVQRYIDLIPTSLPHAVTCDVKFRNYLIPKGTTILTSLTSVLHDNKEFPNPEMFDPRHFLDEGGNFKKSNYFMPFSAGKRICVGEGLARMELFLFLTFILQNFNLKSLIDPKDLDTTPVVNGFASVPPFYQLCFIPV
Sequence of eIF-2-alpha kinase GCN2 (Q9P2K8 whole entry): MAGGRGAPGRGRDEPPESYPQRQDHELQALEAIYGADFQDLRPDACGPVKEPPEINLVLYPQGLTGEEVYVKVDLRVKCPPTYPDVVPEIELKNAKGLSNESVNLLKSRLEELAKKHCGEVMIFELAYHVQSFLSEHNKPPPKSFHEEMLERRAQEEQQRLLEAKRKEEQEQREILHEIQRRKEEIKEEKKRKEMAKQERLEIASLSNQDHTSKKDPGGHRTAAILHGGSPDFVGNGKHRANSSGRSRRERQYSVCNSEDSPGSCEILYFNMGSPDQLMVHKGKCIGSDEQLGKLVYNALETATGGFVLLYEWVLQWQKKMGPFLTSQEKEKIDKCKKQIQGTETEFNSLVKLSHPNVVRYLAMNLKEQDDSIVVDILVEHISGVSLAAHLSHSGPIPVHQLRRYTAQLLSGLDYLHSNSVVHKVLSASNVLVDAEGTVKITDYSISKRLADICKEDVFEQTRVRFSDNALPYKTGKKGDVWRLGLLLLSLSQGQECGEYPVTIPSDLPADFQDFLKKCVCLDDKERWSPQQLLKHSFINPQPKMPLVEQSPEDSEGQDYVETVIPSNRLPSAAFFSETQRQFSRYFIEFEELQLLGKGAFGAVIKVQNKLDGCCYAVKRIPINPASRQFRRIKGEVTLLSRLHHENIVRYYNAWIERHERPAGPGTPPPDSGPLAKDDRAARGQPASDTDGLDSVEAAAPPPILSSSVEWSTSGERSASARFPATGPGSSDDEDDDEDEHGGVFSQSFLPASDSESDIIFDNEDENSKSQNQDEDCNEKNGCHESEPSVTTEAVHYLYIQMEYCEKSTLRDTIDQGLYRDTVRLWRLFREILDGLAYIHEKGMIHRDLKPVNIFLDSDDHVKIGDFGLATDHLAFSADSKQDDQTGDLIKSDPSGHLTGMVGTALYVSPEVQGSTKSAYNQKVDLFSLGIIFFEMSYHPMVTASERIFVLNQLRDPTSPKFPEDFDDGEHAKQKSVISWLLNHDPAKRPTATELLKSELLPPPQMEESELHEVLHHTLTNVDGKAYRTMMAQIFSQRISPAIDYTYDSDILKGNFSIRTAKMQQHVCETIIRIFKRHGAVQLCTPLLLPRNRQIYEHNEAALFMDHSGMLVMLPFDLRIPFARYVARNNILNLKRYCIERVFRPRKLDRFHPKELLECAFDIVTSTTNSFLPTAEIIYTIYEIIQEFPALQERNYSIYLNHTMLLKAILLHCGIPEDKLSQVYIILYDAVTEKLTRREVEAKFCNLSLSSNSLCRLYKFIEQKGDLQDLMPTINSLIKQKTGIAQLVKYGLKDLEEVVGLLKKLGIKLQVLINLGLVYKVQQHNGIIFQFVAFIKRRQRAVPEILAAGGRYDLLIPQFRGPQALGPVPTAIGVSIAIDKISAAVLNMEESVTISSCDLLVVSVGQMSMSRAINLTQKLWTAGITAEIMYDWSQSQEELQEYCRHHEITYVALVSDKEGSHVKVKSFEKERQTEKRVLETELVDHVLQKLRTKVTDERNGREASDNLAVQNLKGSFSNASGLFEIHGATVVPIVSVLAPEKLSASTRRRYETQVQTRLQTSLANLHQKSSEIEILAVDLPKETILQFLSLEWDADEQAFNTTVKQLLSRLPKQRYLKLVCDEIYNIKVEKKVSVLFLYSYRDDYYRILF
Sequence of Eukaryotic translation initiation factor 2-alpha kinase 1 (Q9BQI3 whole entry): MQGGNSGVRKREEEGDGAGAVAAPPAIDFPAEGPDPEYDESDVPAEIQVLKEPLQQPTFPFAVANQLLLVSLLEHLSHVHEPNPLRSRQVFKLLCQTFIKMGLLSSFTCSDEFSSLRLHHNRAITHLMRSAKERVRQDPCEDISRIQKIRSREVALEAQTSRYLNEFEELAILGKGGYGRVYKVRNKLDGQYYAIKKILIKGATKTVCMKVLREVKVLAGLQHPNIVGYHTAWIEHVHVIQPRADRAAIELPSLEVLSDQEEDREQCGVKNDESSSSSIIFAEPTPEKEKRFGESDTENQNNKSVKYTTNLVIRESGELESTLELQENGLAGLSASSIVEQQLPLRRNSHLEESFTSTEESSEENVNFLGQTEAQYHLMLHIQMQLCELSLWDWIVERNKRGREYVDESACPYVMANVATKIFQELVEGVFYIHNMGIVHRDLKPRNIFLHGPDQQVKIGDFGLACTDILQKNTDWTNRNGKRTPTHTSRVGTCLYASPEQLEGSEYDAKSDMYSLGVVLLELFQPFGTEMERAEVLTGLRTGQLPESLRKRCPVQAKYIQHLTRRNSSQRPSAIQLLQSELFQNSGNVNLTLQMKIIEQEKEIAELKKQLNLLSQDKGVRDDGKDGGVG
Sequence of Interferon-induced, double-stranded RNA-activated protein kinase (P19525 whole entry): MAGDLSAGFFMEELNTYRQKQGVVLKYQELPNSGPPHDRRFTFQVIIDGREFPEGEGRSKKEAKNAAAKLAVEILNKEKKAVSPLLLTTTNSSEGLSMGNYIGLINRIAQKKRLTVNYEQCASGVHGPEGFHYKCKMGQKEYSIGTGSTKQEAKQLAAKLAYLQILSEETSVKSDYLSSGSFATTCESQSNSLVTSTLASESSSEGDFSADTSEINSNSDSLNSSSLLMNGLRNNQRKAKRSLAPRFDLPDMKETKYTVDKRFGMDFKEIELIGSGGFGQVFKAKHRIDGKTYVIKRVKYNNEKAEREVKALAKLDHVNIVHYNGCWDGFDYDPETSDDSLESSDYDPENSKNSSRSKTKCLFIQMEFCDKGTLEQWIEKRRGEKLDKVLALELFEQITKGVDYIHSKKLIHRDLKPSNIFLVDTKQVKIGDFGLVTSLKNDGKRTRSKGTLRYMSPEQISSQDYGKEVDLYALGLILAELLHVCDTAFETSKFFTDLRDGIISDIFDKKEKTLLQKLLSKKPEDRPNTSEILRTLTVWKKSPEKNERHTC

Turning to `Cn1cc(-c2ccc3c(c2)CCN3C(=O)Cc2cccc(C(F)(F)F)c2)c2c(N)ncnc21`, the clearance in data set [1] was 21.5 mL/min/kg. The IC50 in data set [2] is 23 µM; in [3] it was 7 µM; in data set [4] it was 890 nM; in [5] it was 4.5 µM; in data set [6] it was 21 µM.
For the compound `Cn1cc(-c2ccc3c(c2)CCN3C(=O)Cc2ccccn2)c2c(N)ncnc21`, the IC50 in data set [7] was 19.1 nM.
For the compound `Cn1cc(-c2ccc3c(c2)CCN3C(=O)Cc2cccnc2)c2c(N)ncnc21`, in [7], the IC50 was 23.4 nM.
Same read-out and setting: the value for `Cn1cc(-c2ccc3c(c2)CCN3C(=O)Cc2ccncc2)c2c(N)ncnc21` was 63.8 nM.
For `Cc1cccc(CC(=O)N2CCc3cc(-c4cn(C)c5ncnc(N)c45)ccc32)n1`, the half-maximal inhibitory concentration (IC50) in data set [8] was 100 nM; in data set [7], 2.5 nM. The clearance in data set [1] was 10.5 mL/min/kg.
`Cc1cccc(CC(=O)N2CCc3c2ccc(-c2cn(C)c4ncnc(N)c24)c3F)n1`: the figures for the clearance in data set [9], in [1] and in data set [19] were 15.5 mL/min/kg, 9.5 mL/min/kg and 10.5 mL/min/kg, respectively. Also, the IC50 in [8] was 30 nM; in data set [12], 905 nM; in [7] it was 0.8 nM; in data set [3], more than 25 µM; in data set [23], 460 nM; in data set [4], more than 25000 nM. Besides, the 50% inhibitory concentration (IC50) in data set [5] was 24.7 µM; in [28] it was 3.39 µM; in data set [6], more than 25 µM; in data set [29] it was more than 25 µM. The half-life is 84 min in data set [10], 75 min in [14] and 186 min in [27]. Also, the Vd came to 2.8 L/kg in data set [11], 0.6 L/kg in [13] and 0.72 L/kg in data set [15]. The AUC(0-inf) came out at 3920 ng·h/mL in [16]; 3270 ng·h/mL in [18]; 13400 ng·h/mL in [21]; 6210 ng·h/mL in [22]; 8020 ng·h/mL in data set [25]; 3130 ng·h/mL in data set [26]. The results for the bioavailability in data set [17], in data set [20] and in [24] were 52%, 100% and 100%, respectively.
